# Laboratory results published in patent US4469705A, “Saturated leukotriene derivatives as antiallergens” (McNeilab, Inc., priority 1982, dated 1984).
# Experiments:
# [1] = test system: SRS-A induced contraction of guinea pig ileum; assay: Guinea pig ileum: inhibition of SRS-A induced contraction (isolated tissue); assay type: cell-based; details: Cavia porcellus, atropine and chlorpheniramine (1×10^-5 M) present, test drug 5 min before SRS-A, read-out: G.P. Ileum IC50
# Method: The tissue is exposed to […] histamine at 1-3 minute intervals until a reproducible response is obtained. Atropine (1×10^-5 M) and chloropheniramine (1×10^-5 M) are added followed by 1-2 biological units of SRS-A. After washing the tissue, the response to BaCl2 (1×10^-3 M) was also noted.
# [2] = test system: contraction of guinea pig parenchymal tissue by immunological release of SRS-A; assay: Guinea pig parenchymal strip: inhibition of contraction by immunological release of SRS-A (isolated tissue); assay type: cell-based; details: Cavia porcellus; egg albumin challenge of sensitized tissue; chlorpheniramine (10^-5 M), indomethacin (10^-4 M); test compound 30 min before challenge
# Method: (b) Guinea Pig Parenchymal Strip
# The guinea pigs were sacrificed and lungs removed. Strips of subpleural parenchyma were prepared from the left and right diaphragmatic lobes and suspended in a tissue bath under 1 gram of tension. After a one hour equilibration period, a dose response to histamine (10^-7 to 10^-4 M) induced contractions was performed to determine maximal contraction. The tissues were then washed and allowed to relax to baseline. Chlorpheniramine (10^-5 M), indomethacin (10^-4 M) and test compound were added 30 minutes prior to challenge with egg albumin. The response to antigen was measured in milligrams of tension.
IC50 [1] [µM],SMILES,IC50 [2] [µM]
1,"CCCCCCCCCCC[C@@H](SCCC(=O)OC)[C@H](O)CCCCC(=O)OC (relative stereo) [Example 1, Threo Methyl 6-Hydroxy-7{[2-(methoxycarbonyl)ethyl]thio}octadecanoate]",> 100
0.08,"CCCCCCCCCCC[C@@H](SCCC(=O)O)[C@@H](O)CCCCC(=O)O (relative stereo) [Example 5, Erythro 7-(2-Carboxyethyl)thio-6-hydroxyoctadecanoic Acid]",3.6
14,"CCCCCCCCCCCC(SC[C@H](N)C(=O)OC)C(O)CCCCC(=O)OC (stereo partly drawn) [Example 3, Threo S-(5-Hydroxy-1-methoxycarbonyl-6-heptadecyl)-L-cysteine Methyl Ester]",> 100

# Further lines, the compound ahead of its results:
SMILES,IC50 [1] [µM],IC50 [2] [µM]
"CCCCCCCCCCC[C@@H](SCCC(=O)O)[C@H](O)CCCCC(=O)O (relative stereo) [Example 2, Threo 7-(2-Carboxyethyl)thio-6-hydroxyoctadecanoic Acid]",9,100
"CCCCCCCCCCC[C@@H](SCCC(=O)OC)[C@@H](O)CCCCC(=O)OC (relative stereo) [Example 4, Erythro Methyl 6-Hydroxy-7-{[2-(methoxycarbonyl)ethyl]thio}octadecanoate]",,1.1
